Patent publication US6737383B1, “Herbicidal oxadiazolidines” (priority 1999, dated 2004)

Assays:
wild oat = experiment: Test B pre/postemergence wild oat; format: in vivo, Avena fatua; conditions: for Wild oats plant response rating: scale of 0 to 10 where 0 is no effect and 10 is complete control
Outline: (§1)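 Response is a visual 0-to-10 score relative to untreated plants, where 0 means no effect and 10 means complete control, taken twelve to sixteen days after application. Treatments went onto soil at planting and onto foliage of 1- to 4-leaf plants, using a surfactant-containing non-phytotoxic solvent.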

bedstraw = experiment: Test B pre/postemergence bedstraw; format: in vivo, Galium aparine
Outline: as §1

corn = experiment: Test B pre/postemergence corn; format: in vivo, Zea mays; conditions: for Corn plant response rating: scale of 0 to 10 where 0 is no effect and 10 is complete control
Outline: as §1

velvetleaf = experiment: Test B pre/postemergence velvetleaf; format: in vivo, Abutilon theophrasti; conditions: for Velvetleaf plant response rating: scale of 0 to 10 where 0 is no effect and 10 is complete control
Outline: as §1

blackgrass = experiment: Test B pre/postemergence blackgrass; format: in vivo, Alopecurus myosuroides
Outline: as §1

surinam grass = experiment: Test B pre/postemergence surinam grass; format: in vivo, Brachiaria decumbens
Outline: as §1

purple nutsedge = experiment: Test B pre/postemergence purple nutsedge; format: in vivo, Cyperus rotundus; conditions: for Nutsedge plant response rating: scale of 0 to 10 where 0 is no effect and 10 is complete control
Outline: as §1

giant foxtail = experiment: Test B pre/postemergence giant foxtail; format: in vivo, Setaria faberii; conditions: for Giant foxtail plant response rating: scale of 0 to 10 where 0 is no effect and 10 is complete control
Outline: as §1

rape = experiment: Test B pre/postemergence rape; format: in vivo, Brassica napus; conditions: for Rape plant response rating: scale of 0 to 10 where 0 is no effect and 10 is complete control
Outline: as §1

bamyardgrass = experiment: Test B flood test barnyardgrass; format: in vivo, Echinochloa crus-galli
Outline: (§2)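 Plants were grown to the 2-leaf stage before treatment with test chemical, then held in a greenhouse for twelve to sixteen days. Injury was visually rated against untreated controls on a 0–10 scale, where 0 is no effect and 10 is complete control.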

duck salad = experiment: Test B flood test duck salad; format: in vivo, Heteranthera limosa
Outline: as §2

rice = experiment: Test B flood test rice; format: in vivo, Oryza sativa
Outline: as §2

crabgrass = experiment: Test B pre/postemergence crabgrass; format: in vivo, Digitaria sanguinalis; conditions: for Crabgrass plant response rating: scale of 0 to 10 where 0 is no effect and 10 is complete control
Outline: as §1

sugar beet = experiment: Test B pre/postemergence sugar beet; format: in vivo, Beta vulgaris; conditions: for Sugarbeets plant response rating: scale of 0 to 10 where 0 is no effect and 10 is complete control
Outline: as §1

wheat = experiment: Test B pre/postemergence wheat; format: in vivo, Triticum aestivum; conditions: for Wheat plant response rating: scale of 0 to 10 where 0 is no effect and 10 is complete control
Outline: as §1

smallflower flatsedge = experiment: Test B flood test smallflower flatsedge; format: in vivo, Cyperus difformis
Outline: as §2

[1] = Postemergence, Rate 125 g/ha, scale 0 to 10, 0 is no effect, 10 is complete control
[2] = Preemergence, Rate 62 g/ha, scale 0 to 10 (0 no effect, 10 complete control)
[3] = Rate 500 g/ha, Postemergence, scale 0 to 10, 0 no effect, 10 complete control
[4] = Preemergence, Rate 250 g/ha, scale of 0 to 10 where 0 is no effect and 10 is complete control
[5] = Preemergence, Rate 500 g/ha, scale of 0 to 10 where 0 is no effect and 10 is complete control
[6] = Rate 62 g/ha, Postemergence, scale of 0 to 10 where 0 is no effect and 10 is complete control
[7] = Rate 250 g/ha, Postemergence, scale of 0 to 10 where 0 is no effect and 10 is complete control
[8] = Postemergence (flood test), Rate 125 g/ha, scale 0 to 10, 0 is no effect, 10 is complete control
[9] = Rate 62 g/ha, Postemergence (flood test species), scale of 0 to 10 where 0 is no effect and 10 is complete control
[10] = Rate 500 g/ha, listed under Postemergence (flood test species), scale 0 to 10, 0 no effect, 10 complete control

COCC(C)n1c(=O)on(C(=O)N(c2ccc(F)cc2F)C(C)C)c1=O (stereo not shown) [Compound 357]
2: Plant response rating, Velvetleaf (velvetleaf; [1]) | Velvetleaf plant response rating (velvetleaf; Rate 62 g/ha, Postemergence) | Plant response rating, Nutsedge (purple nutsedge; [3]) | Rape plant response rating (0 to 10 scale) (rape; Preemergence, Rate 125 g/ha) | Plant response rating, Barnyardgrass (bamyardgrass; [8]) | Plant response rating, Ducksalad (duck salad; [10]) | Plant response rating, Rice (rice; [10]) | Plant response rating, Crabgrass (crabgrass; [1]) | Crabgrass plant response rating (crabgrass; Rate 62 g/ha, Postemergence) | Plant response rating, Sugarbeets (sugar beet; [2])
8: Blackgrass plant response rating (0 to 10 scale) (blackgrass; Preemergence, Rate 125 g/ha) | Plant response rating, Giant foxtail (giant foxtail; [1]) | Giant foxtail plant response rating (giant foxtail; Rate 62 g/ha, Postemergence) | Rape plant response rating (rape; Preemergence, Rate 250 g/ha) | Rape plant response rating (rape; Preemergence, Rate 500 g/ha) | Plant response rating, S. Flatsedge (smallflower flatsedge; [10])
0: Plant response rating, Bedstraw (bedstraw; [1]) | Bedstraw plant response rating (bedstraw; [6]) | Plant response rating, Bedstraw (bedstraw; [7]) | Plant response rating, Corn (corn; [1]) | Plant response rating, Corn (corn; [2]) | Corn plant response rating (0 to 10 scale) (corn; Preemergence, Rate 125 g/ha) | Corn plant response rating (corn; Rate 62 g/ha, Postemergence) | Plant response rating, B. signalgrass (surinam grass; [1]) | B. signalgrass plant response rating (surinam grass; [6]) | Plant response rating, Nutsedge (purple nutsedge; [1]) | Plant response rating, Nutsedge (purple nutsedge; [2]) | Nutsedge plant response rating (0 to 10 scale) (purple nutsedge; Preemergence, Rate 125 g/ha) | Nutsedge plant response rating (purple nutsedge; Preemergence, Rate 250 g/ha) | Nutsedge plant response rating (purple nutsedge; Rate 62 g/ha, Postemergence) | Plant response rating, Rape (rape; [1]) | Plant response rating, Rape (rape; [2]) | Rape plant response rating (rape; Rate 62 g/ha, Postemergence) | Barnyardgrass plant response rating (bamyardgrass; [9]) | Plant response rating, Ducksalad (duck salad; [8]) | Ducksalad plant response rating (duck salad; [9]) | Plant response rating, Rice (rice; [8]) | Rice plant response rating (rice; [9]) | Plant response rating, Sugarbeets (sugar beet; [1]) | Sugarbeets plant response rating (sugar beet; Rate 62 g/ha, Postemergence) | Plant response rating, Sugarbeets (sugar beet; [3]) | Plant response rating, S. Flatsedge (smallflower flatsedge; [8]) | S. Flatsedge plant response rating (smallflower flatsedge; [9])
6: Plant response rating, Wild oats (wild oat; [3]) | Corn plant response rating (corn; Preemergence, Rate 250 g/ha) | Plant response rating, Blackgrass (blackgrass; [1]) | Plant response rating, Blackgrass (blackgrass; [7]) | B. signalgrass plant response rating (surinam grass; [4]) | Nutsedge plant response rating (purple nutsedge; Preemergence, Rate 500 g/ha) | Plant response rating, Barnyardgrass (bamyardgrass; [10]) | Sugarbeets plant response rating (sugar beet; Preemergence, Rate 500 g/ha) | Wheat plant response rating (0 to 10 scale) (wheat; Preemergence, Rate 125 g/ha)
1: Plant response rating, B. signalgrass (surinam grass; [2])
7: Velvetleaf plant response rating (velvetleaf; Preemergence, Rate 500 g/ha) | Plant response rating, Blackgrass (blackgrass; [2]) | Plant response rating, Blackgrass (blackgrass; [3]) | B. signalgrass plant response rating (surinam grass; [5]) | Plant response rating, B. signalgrass (surinam grass; [3]) | Plant response rating, Wheat (wheat; [3])
5: Plant response rating, Bedstraw (bedstraw; [3]) | Velvetleaf plant response rating (0 to 10 scale) (velvetleaf; Preemergence, Rate 125 g/ha) | Velvetleaf plant response rating (velvetleaf; Preemergence, Rate 250 g/ha) | Plant response rating, Crabgrass (crabgrass; [3]) | Sugarbeets plant response rating (sugar beet; Preemergence, Rate 250 g/ha) | Plant response rating, Wheat (wheat; [1])
10: Wild oats plant response rating (0 to 10 scale) (wild oat; Preemergence, Rate 125 g/ha) | Wild oats plant response rating (wild oat; Preemergence, Rate 250 g/ha) | Wild oats plant response rating (wild oat; Preemergence, Rate 500 g/ha) | Plant response rating, Bedstraw (bedstraw; [2]) | Bedstraw plant response rating (0 to 10 scale) (bedstraw; Preemergence, Rate 125 g/ha) | Bedstraw plant response rating (bedstraw; [4]) | Bedstraw plant response rating (bedstraw; [5]) | Blackgrass plant response rating (blackgrass; [5]) | Plant response rating, Giant foxtail (giant foxtail; [2]) | Giant foxtail plant response rating (0 to 10 scale) (giant foxtail; Preemergence, Rate 125 g/ha) | Giant foxtail plant response rating (giant foxtail; Preemergence, Rate 250 g/ha) | Giant foxtail plant response rating (giant foxtail; Preemergence, Rate 500 g/ha) | Crabgrass plant response rating (crabgrass; Preemergence, Rate 500 g/ha)
3: Wild oats plant response rating (wild oat; Rate 62 g/ha, Postemergence) | Plant response rating, Corn (corn; [3]) | Blackgrass plant response rating (blackgrass; [6]) | B. signalgrass plant response rating (0 to 10 scale, 0 is no effect, 10 is complete control) (surinam grass; Preemergence, Rate 125 g/ha) | Sugarbeets plant response rating (0 to 10 scale) (sugar beet; Preemergence, Rate 125 g/ha)
9: Plant response rating, Wild oats (wild oat; [2]) | Corn plant response rating (corn; Preemergence, Rate 500 g/ha) | Blackgrass plant response rating (blackgrass; [4]) | Plant response rating, Giant foxtail (giant foxtail; [3]) | Plant response rating, Crabgrass (crabgrass; [2]) | Crabgrass plant response rating (0 to 10 scale) (crabgrass; Preemergence, Rate 125 g/ha) | Crabgrass plant response rating (crabgrass; Preemergence, Rate 250 g/ha) | Wheat plant response rating (wheat; Preemergence, Rate 250 g/ha) | Wheat plant response rating (wheat; Preemergence, Rate 500 g/ha)
4: Plant response rating, Wild oats (wild oat; [1]) | Plant response rating, Velvetleaf (velvetleaf; [2]) | Plant response rating, Velvetleaf (velvetleaf; [3]) | Plant response rating, B. signalgrass (surinam grass; [7]) | Plant response rating, Rape (rape; [3]) | Plant response rating, Barnyardgrass (bamyardgrass; Rate 250 g/ha, Postemergence (flood test species), scale of 0 to 10 where 0 is no effect and 10 is complete control) | Plant response rating, Wheat (wheat; [2]) | Wheat plant response rating (wheat; Rate 62 g/ha, Postemergence)
